Measurements as given in paper PMC6332508, “A Promising PET Tracer for Imaging of α7 Nicotinic Acetylcholine Receptors in the Brain: Design, Synthesis, and in Vivo Evaluation of a Dibenzothiophene-Based Radioligand” (Molecules, 2015).
Several values for one entry are separate records, joined by “and”; a condition that tells them apart may be missing. Equal values may be shown once.

System: α7 nAChR
Assay: Dynamic PET studies in piglets with kinetic modelling (2TCM)
Format: in vivo
Conditions: for BPND / Rate Constant K1 / Rate Constant k2 / Rate Constant k3 / Rate Constant k4 / VND: piglet brain, 240 min scan data
Method: One-tissue and two-tissue compartment models (1TCM and 2TCM) were evaluated for mathematical description of [^18F]10a time-activity curves (TACs) in pig brain regions (Figure 3) using metabolite-corrected arterial plasma input functions. The 2TCM was identified as the more appropriate model based on its smaller Akaike information criterion (AIC) value. The four rate constants K1, k2, k3, and k4 were fitted and the non-displaceable volume of distribution (VND = K1/k2) and the binding potential (BPND = k3/k4) as defined by Innis et al. were calculated for each region of interest (Table 3 and Table 4).
Six female animals were used in this study with anesthesia and surgery performed as described previously. In brief, the animals received initially a premedication with midazolam (1 mg∙kg^−1 i.m.) followed by induction of anesthesia with 3% isoflurane in 70% N2O/30% O2. All incision sites were infiltrated with 1% lidocaine, and the anesthesia was maintained with 1.5% isoflurane throughout the surgical procedure. A central venous catheter was introduced through the left external jugular vein and used for the administration of the radiotracer and drugs, and for volume substitution with heparinized (50 IE∙mL^−1) lactated Ringer’s solution (2 mL∙kg^−1∙h^−1). An endotracheal tube was inserted by tracheotomy for artificial ventilation (Servo Ventilator 900C, Siemens-Elema, Solna, Sweden) after immobilization with pancuronium bromide (0.2 mg∙kg^−1∙h^−1). The artificial ventilation was adjusted to obtain normoxia and normocapnia (Radiometer ABL 500, Copenhagen, Denmark). Polyurethane catheters (i.d., 0.5 mm) were advanced through the left and the right femoral arteries into the abdominal aorta to withdraw arterial blood samples for regular monitoring of blood gases and for radiotracer input function measurements and metabolite analyses. The body temperature was monitored by a rectal temperature probe and maintained at ~38 °C by a heating pad. After the surgical procedure has been completed, anesthesia was maintained with 0.5% isoflurane in 70% N2O/30% O2, and the animals were allowed to stabilize for 1 h before imaging procedure.
PET imaging was performed according to the protocol described recently. In brief, a clinical tomograph (ECAT Exact HR+; Siemens Healthcare GmbH, Erlangen, Germany) was used with animals lying prone with the head placed in a custom-made head holder. For attenuation and scatter correction, transmission scans were acquired using three rotating ^68Ge rod sources. The radiotracer was injected as an intravenous (i.v.) bolus (10 mL saline with 340–494 MBq [^18F]10a) by a syringe pump within 2 min followed by flushing with 10 mL heparinized saline (50 IE∙mL^−1). PET scanning started at the time of injection (0 min) and dynamic emission data were acquired for a total of 240 min. Three animals were investigated under baseline conditions, and another three under blocking conditions with administration of 3 mg∙kg^−1 i.v. of the α7 nAChR partial agonist NS6740 at 3 min before radiotracer injection followed by a continuous infusion throughout the scan (1 mg∙kg^−1∙h^−1).
Arterial blood was sampled using a peristaltic pump during the first 20 min of the scan followed by manual sampling at 25, 30, 40, 50, 60, 90, 120, 150, 180, 210, and 240 min after injection. Plasma was obtained by centrifugation (13,000 rpm, 2 min at 21 °C) and total radioactivity concentration was measured using a gamma-counter (1470 Wizard; PerkinElmer, Shelton, CT, USA) cross-calibrated to the PET scanner. In addition, arterial whole blood was sampled manually at 4, 16, 30, 60, and 120 min p.i. and plasma obtained for metabolite analyses to determine the fraction of non-metabolized [^18F]10a.
The plasma input function was corrected for the presence of radioactive metabolites by determination of the parent fraction as described previously. […]

[1] = Cerebellum, blocking (NS6740), n = 3
[2] = Colliculi, blocking (NS6740), n = 3
[3] = Frontal Cortex, baseline, n = 3
[4] = Frontal Cortex, blocking (NS6740), n = 3
[5] = Hippocampus, blocking (NS6740), n = 3
[6] = Midbrain, blocking (NS6740), n = 3
[7] = Occipital Cortex, baseline, n = 3

In the case of `O=S1(=O)c2ccc([18F])cc2-c2ccc(N3CCN4CCC3CC4)cc21` [[^18F]10a], the “increase of VND under blocking conditions” value (NS6740 vs baseline) is reported as “up to 4 fold”, the “time of peak concentrations of radioactivity in the brain” value (baseline, i.v., n = 3) is reported as 8–10 min p.i and the SUVmax (baseline, other brain regions) is reported as 1.9–2.1. The SUVmax (baseline, thalamus, colliculi, and midbrain) was over 2.2, the BPND (Cerebellum, baseline, n = 3) was 2.5 and 2.53 ± 0.57 and the “Rate Constant K1” value (Cerebellum, baseline, n = 3) was 0.421 ± 0.048 mL·cm^−3·min^−1. The “Rate Constant k2” value (Cerebellum, baseline, n = 3) was 0.131 ± 0.052 min⁻¹, the “Rate Constant k3” value (Cerebellum, baseline, n = 3) was 0.067 ± 0.051 min⁻¹ and the “Rate Constant k4” value (Cerebellum, baseline, n = 3) was 0.026 ± 0.020 min⁻¹. For the same compound, the VND (Cerebellum, baseline, n = 3) was 3.62 ± 1.47, the BPND [1] was 0.71 ± 1.10 and the “Rate Constant K1” value [1] was 0.711 ± 0.148 mL·cm^−3·min^−1. The “Rate Constant k2” value [1] was 0.076 ± 0.014 min⁻¹, the “Rate Constant k3” value [1] was 0.016 ± 0.019 min⁻¹ and the “Rate Constant k4” value [1] was 0.011 ± 0.016 min⁻¹. The VND [1] was 9.75 ± 3.57, the BPND (Colliculi, baseline, n = 3) was 2.68 ± 1.42 and the “Rate Constant K1” value (Colliculi, baseline, n = 3) was 0.450 ± 0.072 mL·cm^−3·min^−1. The “Rate Constant k2” value (Colliculi, baseline, n = 3) was 0.134 ± 0.074 min⁻¹, the “Rate Constant k3” value (Colliculi, baseline, n = 3) was 0.070 ± 0.042 min⁻¹ and the “Rate Constant k4” value (Colliculi, baseline, n = 3) was 0.027 ± 0.018 min⁻¹. For the same compound, the VND (Colliculi, baseline, n = 3) was 4.19 ± 2.37, the BPND [2] was 0.73 ± 0.74 and the “Rate Constant K1” value [2] was 0.735 ± 0.182 mL·cm^−3·min^−1. The “Rate Constant k2” value [2] was 0.066 ± 0.007 min⁻¹, the “Rate Constant k3” value [2] was 0.011 ± 0.013 min⁻¹ and the “Rate Constant k4” value [2] was 0.007 ± 0.015 min⁻¹. The VND [2] was 11.41 ± 3.90, the BPND [3] was 4.22 ± 2.93 and the “Rate Constant K1” value [3] was 0.387 ± 0.059 mL·cm^−3·min^−1. The “Rate Constant k2” value [3] was 0.182 ± 0.153 min⁻¹, the “Rate Constant k3” value [3] was 0.142 ± 0.165 min⁻¹ and the “Rate Constant k4” value [3] was 0.027 ± 0.015 min⁻¹. For the same compound, the VND [3] was 3.32 ± 2.06, the BPND [4] was 0.86 ± 0.92 and the “Rate Constant K1” value [4] was 0.647 ± 0.117 mL·cm^−3·min^−1. The “Rate Constant k2” value [4] was 0.055 ± 0.011 min⁻¹, the “Rate Constant k3” value [4] was 0.014 ± 0.019 min⁻¹ and the “Rate Constant k4” value [4] was 0.010 ± 0.020 min⁻¹. The VND [4] was 12.34 ± 4.27, the BPND (Hippocampus, baseline, n = 3) was 5.5 and 5.50 ± 1.01 and the “Rate Constant K1” value (Hippocampus, baseline, n = 3) was 0.400 ± 0.023 mL·cm^−3·min^−1. The “Rate Constant k2” value (Hippocampus, baseline, n = 3) was 0.188 ± 0.083 min⁻¹, the “Rate Constant k3” value (Hippocampus, baseline, n = 3) was 0.145 ± 0.101 min⁻¹ and the “Rate Constant k4” value (Hippocampus, baseline, n = 3) was 0.025 ± 0.013 min⁻¹. The VND (Hippocampus, baseline, n = 3) was 2.43 ± 0.96, the BPND [5] was 0.84 ± 1.70 and the “Rate Constant K1” value [5] was 0.603 ± 0.118 mL·cm^−3·min^−1. For the same compound, the “Rate Constant k2” value [5] was 0.063 ± 0.023 * min^−1, the “Rate Constant k3” value [5] was 0.024 ± 0.030 min⁻¹ and the “Rate Constant k4” value [5] was 0.011 ± 0.015 min⁻¹. The VND [5] was 10.81 ± 5.02, the BPND (Midbrain, baseline, n = 3) was 3.40 ± 1.73 and the “Rate Constant K1” value (Midbrain, baseline, n = 3) was 0.436 ± 0.045 mL·cm^−3·min^−1. The “Rate Constant k2” value (Midbrain, baseline, n = 3) was 0.162 ± 0.117 min⁻¹, the “Rate Constant k3” value (Midbrain, baseline, n = 3) was 0.121 ± 0.132 min⁻¹ and the “Rate Constant k4” value (Midbrain, baseline, n = 3) was 0.029 ± 0.022 min⁻¹. For the same compound, the VND (Midbrain, baseline, n = 3) was 4.04 ± 3.06, the BPND [6] was 0.61 ± 0.77 and the “Rate Constant K1” value [6] was 0.685 ± 0.131 mL·cm^−3·min^−1. For the same compound, the “Rate Constant k2” value [6] was 0.063 ± 0.010 min⁻¹, the “Rate Constant k3” value [6] was 0.013 ± 0.014 min⁻¹ and the “Rate Constant k4” value [6] was 0.012 ± 0.018 min⁻¹. For the same compound, the VND [6] was 11.17 ± 3.64, the BPND [7] was 3.16 ± 1.11 and the “Rate Constant K1” value [7] was 0.395 ± 0.053 mL·cm^−3·min^−1. The “Rate Constant k2” value [7] was 0.123 ± 0.063 min⁻¹, the “Rate Constant k3” value [7] was 0.099 ± 0.087 min⁻¹ and the “Rate Constant k4” value [7] was 0.030 ± 0.023 min⁻¹.
